Molecular target: T1, AM2 receptor (1321N1 cells transfected with CALCRL+RAMP3) (Homo sapiens, UniProt O60896+Q16602)
T1 construct: host or cells: 1321N1 cells
Test: AM2 receptor inhibition, LANCE cAMP agonist-antagonist competition assay
Assay type: cell-based
Details: inhibition of AM induced cAMP activation, read-out: AM2 D2 protocol: pIC50 (converted)
In short: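 cAMP was quantified by LANCE TR-FRET after an EC50 challenge with adrenomedullin (15 min, room temperature) in CALCRL+RAMP3-transfected 1321N1 cells (2500/well) that had first been exposed to compound for 30 min. Buffer was pH 7.4 HBSS with HEPES and BSA. Forskolin defined 100% stimulation and vehicle 0%.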

T1 sequence (Q16602 23-461): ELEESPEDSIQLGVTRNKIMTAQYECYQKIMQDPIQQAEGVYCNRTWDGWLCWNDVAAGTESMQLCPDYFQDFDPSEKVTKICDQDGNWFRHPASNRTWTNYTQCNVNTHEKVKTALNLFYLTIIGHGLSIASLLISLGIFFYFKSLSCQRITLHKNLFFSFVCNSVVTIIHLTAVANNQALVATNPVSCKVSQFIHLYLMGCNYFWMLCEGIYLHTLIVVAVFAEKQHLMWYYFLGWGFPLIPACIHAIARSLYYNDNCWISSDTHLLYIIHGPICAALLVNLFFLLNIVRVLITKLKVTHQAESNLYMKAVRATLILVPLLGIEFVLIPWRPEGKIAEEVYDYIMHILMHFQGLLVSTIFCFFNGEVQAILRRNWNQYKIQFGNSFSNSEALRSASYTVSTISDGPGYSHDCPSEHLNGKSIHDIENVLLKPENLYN
T1 sequence (O60896 24-148): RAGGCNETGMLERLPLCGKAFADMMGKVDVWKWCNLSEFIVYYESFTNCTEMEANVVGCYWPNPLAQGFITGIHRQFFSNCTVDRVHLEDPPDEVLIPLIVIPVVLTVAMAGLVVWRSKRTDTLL

| Compound | IC50 [nM] |
| --- | --- |
| CCC1(C(=O)N(CC(=O)Nc2ccc3c(c2)C[C@@]2(C3)C(=O)Nc3ncccc32)Cc2ccccc2CNC)CCN(C(=O)NC(C)C)CC1 [Example 101, (R)-4-Ethyl-N1-isopropyl-N4-(2-((methylamino)methyl)benzyl)-N4-(2-oxo-2-((2′-oxo-1,1′,2′,3-tetrahydrospiro[indene-2,3′-pyrrolo[2,3-b]pyridin]-5-yl)amino)ethyl)piperidine-1,4-dicarboxamide] | 1.41 |
| CNCc1ccccc1CN(CC(=O)Nc1ccc2c(c1)C[C@@]1(C2)C(=O)Nc2ncccc21)C(=O)C1(C)CCNC1 (stereo partly drawn) [Example 142, 3-Methyl-N-(2-((methylamino)methyl)benzyl)-N-(2-oxo-2-(((R)-2′-oxo-1,1′,2′,3-tetrahydrospiro[indene-2,3′-pyrrolo[2,3-b]pyridin]-5-yl)amino)ethyl)pyrrolidine-3-carboxamide] | 40.7 |
| CNCc1ccccc1CN(CC(=O)Nc1cc2c(cc1C)CC1(C2)C(=O)Nc2ncccc21)C(=O)C1(C)CCN(C(C)=O)CC1 (centres unmarked) [Example 129, Acetyl-4-methyl-N-(2-((5-methyl-2′-oxo-1,1′,2′,3-tetrahydrospiro[indene-2,3′-pyrrolo[2,3-b]pyridin]-6-yl)amino)-2-oxoethyl)-N-(2-((methylamino)methyl)benzyl)piperidine-4-carboxamide] | 107 |
| CCC1(C(=O)N(CC(=O)Nc2ccc3c(c2)C[C@@]2(C3)C(=O)Nc3ncccc32)Cc2ccccc2CNC)CCN(C(=O)c2ccn[nH]2)CC1 [Example 84, (R)-4-Ethyl-N-(2-((methylamino)methyl)benzyl)-N-(2-oxo-2-((2′-oxo-1,1′,2′,3-tetrahydrospiro[indene-2,3′-pyrrolo[2,3-b]pyridin]-5-yl)amino)ethyl)-1-(1H-pyrazole-5-carbonyl)piperidine-4-carboxamide] | 3.55 |
| CCC1(C(=O)N(CC(=O)Nc2ccc3c(c2)C[C@@]2(C3)C(=O)Nc3ncccc32)Cc2ccccc2CNC)CCN(C(=O)c2cccc(C(F)(F)F)n2)CC1 [Example 78, (R)-4-Ethyl-N-(2-((methylamino)methyl)benzyl)-N-(2-oxo-2-((2′-oxo-1,1′,2′,3-tetrahydrospiro[indene-2,3′-pyrrolo[2,3-b]pyridin]-5-yl)amino)ethyl)-1-(6-(trifluoromethyl)picolinoyl)piperidine-4-carboxamide] | 112 |
| CCC1(C(=O)N(CC(=O)Nc2ccc3c(c2)C[C@@]2(C3)C(=O)Nc3ncccc32)Cc2ccccc2CNC)CCN(C(=O)NCC(F)(F)F)CC1 [Example 113, (R)-4-Ethyl-N4-(2-((methylamino)methyl)benzyl)-N4-(2-oxo-2-((2′-oxo-1,1′,2′,3-tetrahydrospiro[indene-2,3′-pyrrolo[2,3-b]pyridin]-5-yl)amino)ethyl)-N1-(2,2,2-trifluoroethyl)piperidine-1,4-dicarboxamide] | 4.27 |
| CNCc1ccccc1CN(CC(=O)Nc1ccc2c(c1)C[C@@]1(C2)C(=O)Nc2ncccc21)C(=O)C1(C)CCN(C(=O)c2ccccc2C(=O)O)CC1 [Example 34, (R)-2-(4-Methyl-4-((2-((methylamino)methyl)benzyl)(2-oxo-2-((2′-oxo-1,1′,2′,3-tetrahydrospiro[indene-2,3′-pyrrolo[2,3-b]pyridin]-5-yl)amino)ethyl)carbamoyl)piperidine-1-carbonyl)benzoic Acid] | 70.8 |
| CNCc1ccccc1CN(CC(=O)Nc1ccc2c(c1)C[C@@]1(C2)C(=O)Nc2ncccc21)C(=O)C1(C)CCN(C(=O)c2ccn[nH]2)CC1 [Example 25, (R)-4-Methyl-N-(2-((methylamino)methyl)benzyl)-N-(2-oxo-2-((2′-oxo-1,1′,2′,3-tetrahydrospiro[indene-2,3′-pyrrolo[2,3-b]pyridin]-5-yl)amino)ethyl)-1-(1H-pyrazole-5-carbonyl) piperidine-4-carboxamide] | 2.14 |
| CNCc1ccccc1CN(CC(=O)Nc1ccc2c(c1)C[C@@]1(C2)C(=O)Nc2ncccc21)C(=O)C1(OC)CCN(C(C)=O)CC1 [Example 127, 1-Acetyl-4-methoxy-N-[[2-(methylaminomethyl)phenyl]methyl]-N-[2-oxo-2-[[(3R)-2-oxospiro[1H-pyrrolo[2,3-b]pyridine-3,2′-indane]-5′-yl]amino]ethyl]piperidine-4-carboxamide] | 24.5 |
| CCC1(C(=O)N(CC(=O)Nc2ccc3c(c2)C[C@@]2(C3)C(=O)Nc3ncccc32)Cc2ccccc2CNC)CCN(C(=O)N2CCC(C(F)(F)F)CC2)CC1 [Example 110, (R)-4-Ethyl-N-(2-((methylamino)methyl)benzyl)-N-(2-oxo-2-((2′-oxo-1,1′,2′,3-tetrahydrospiro[indene-2,3′-pyrrolo[2,3-b]pyridin]-5-yl)amino)ethyl)-1-(4-(trifluoromethyl)piperidine-1-carbonyl)piperidine-4-carboxamide] | 93.3 |
| CNCc1ccccc1CN(CC(=O)Nc1ccc2c(c1)C[C@@]1(C2)C(=O)Nc2ncccc21)C(=O)C1(C)CCN(C(=O)c2cccc(C(=O)O)c2)CC1 [Example 33, (R)-3-(4-Methyl-4-((2-((methylamino)methyl)benzyl)(2-oxo-2-((2′-oxo-1,1′,2′,3-tetrahydrospiro[indene-2,3′-pyrrolo[2,3-b]pyridin]-5-yl)amino)ethyl)carbamoyl)piperidine-1-carbonyl)benzoic Acid] | 15.1 |

Other lines, results leading:

| IC50 [nM] | Compound |
| --- | --- |
| 5.01 | CNCc1ccccc1CN(CC(=O)Nc1ccc2c(c1)C[C@@]1(C2)C(=O)Nc2ncccc21)C(=O)C1(C)CCN(Cc2cccc(C(=O)O)c2)CC1 [Example 47, (R)-3-((4-Methyl-4-((2-((methylamino)methyl)benzyl)(2-oxo-2-((2′-oxo-1,1′,2′,3-tetrahydrospiro[indene-2,3′-pyrrolo[2,3-b]pyridin]-5-yl)amino)ethyl)carbamoyl)piperidin-1-yl)methyl)benzoic Acid] |
| 8.32 | CCC1(C(=O)N(CC(=O)Nc2ccc3c(c2)C[C@@]2(C3)C(=O)Nc3ncccc32)Cc2ccccc2CNC)CCN(C(=O)[C@@H](N)C(C)C)CC1 [Example 82, 1-((S)-2-Amino-3-methylbutanoyl)-4-ethyl-N-(2-((methylamino)methyl)benzyl)-N-(2-oxo-2-(((R)-2′-oxo-1,1′,2′,3-tetrahydrospiro[indene-2,3′-pyrrolo[2,3-b]pyridin]-5-yl)amino)ethyl)piperidine-4-carboxamide] |
| 2.19 | CCC1(C(=O)N(CC(=O)Nc2ccc3c(c2)C[C@@]2(C3)C(=O)Nc3ncccc32)Cc2ccccc2CNC)CCN(C(=O)N2CCOCC2)CC1 [Example 103, (R)-4-Ethyl-N-(2-((methylamino)methyl)benzyl)-1-(morpholine-4-carbonyl)-N-(2-oxo-2-((2′-oxo-1,1′,2′,3-tetrahydrospiro[indene-2,3′-pyrrolo[2,3-b]pyridin]-5-yl)amino)ethyl)piperidine-4-carboxamide] |
| 3.39 | CNCc1ccccc1CN(CC(=O)Nc1ccc2c(c1)CC1(C2)C(=O)Nc2ncccc21)C(=O)C1(C)CCNCC1 (centres unmarked) [Example 2, 4-Methyl-N-(2-((methylamino)methyl)benzyl)-N-(2-oxo-2-((2′-oxo-1,1′,2′,3-tetrahydrospiro[indene-2,3′-pyrrolo[2,3-b]pyridin]-5-yl)amino)ethyl)piperidine-4-carboxamide bis(2,2,2-trifluoroacetate)] |
| 3.63 | CNCc1ccccc1CN(CC(=O)Nc1ccc2c(c1)C[C@@]1(C2)C(=O)Nc2ncccc21)C(=O)C1(C)CCN(C(=O)N2CCCC2)CC1 [Example 57, (R)-4-Methyl-N-(2-((methylamino)methyl)benzyl)-N-(2-oxo-2-((2′-oxo-1,1′,2′,3-tetrahydrospiro[indene-2,3′-pyrrolo[2,3-b]pyridin]-5-yl)amino)ethyl)-1-(pyrrolidine-1-carbonyl)piperidine-4-carboxamide] |
| 25.7 | CNCc1ccccc1CN(CC(=O)Nc1ccc2c(c1)C[C@@]1(C2)C(=O)Nc2ncccc21)C(=O)C1(C)CCN(Cc2ccc(C(=O)O)cc2)CC1 [Example 46, (R)-4-[[4-Methyl-4-[[2-(methylaminomethyl)phenyl]methyl-[2-oxo-2-[[(3R)-2-oxospiro[1H-pyrrolo[2,3-b]pyridine-3,2′-indane]-5′-yl]amino]ethyl]carbamoyl]-1-piperidyl]methyl]benzoic Acid] |
| 69.2 | CC(=O)N1CCC(C)(C(=O)N(CC(=O)Nc2cc3c(cc2C)CC2(C3)C(=O)Nc3ncccc32)Cc2ccccc2CN)CC1 (centres unmarked) [Example 130, 1-Acetyl-N-(2-(aminomethyl)benzyl)-4-methyl-N-(2-((5-methyl-2′-oxo-1,1′,2′,3-tetrahydrospiro[indene-2,3′-pyrrolo[2,3-b]pyridin]-6-yl)amino)-2-oxoethyl)piperidine-4-carboxamide] |
| 2.24 | CCC1(C(=O)N(CC(=O)Nc2ccc3c(c2)C[C@@]2(C3)C(=O)Nc3ncccc32)Cc2ccccc2CNC)CCN(C(=O)c2ccn(C)n2)CC1 [Example 70, (R)-4-Ethyl-1-(1-methyl-1H-pyrazole-3-carbonyl)-N-(2-((methylamino)methyl)benzyl)-N-(2-oxo-2-((2′-oxo-1,1′,2′,3-tetrahydrospiro[indene-2,3′-pyrrolo[2,3-b]pyridin]-5-yl)amino)ethyl)piperidine-4-carboxamide] |
| 8.71 | CCC1(C(=O)N(CC(=O)Nc2ccc3c(c2)C[C@@]2(C3)C(=O)Nc3ncccc32)Cc2ccccc2CNC)CCN(C(=O)COCCOCCOCCOCCOCCOCCOC)CC1 [Example 97, (R)-1-(2,5,8,11,14,17,20-Heptaoxadocosan-22-oyl)-4-ethyl-N-(2-((methylamino)methyl)benzyl)-N-(2-oxo-2-((2′-oxo-1,1′,2′,3-tetrahydrospiro[indene-2,3′-pyrrolo[2,3-b]pyridin]-5-yl)amino)ethyl)piperidine-4-carboxamide] |
